Test results as given in US20230092359A1, “GEMFIBROZIL FORMULATION” (Polaryx Therapeutics, Inc., priority 2020, published 2023).
Read-outs that look alike come from different tables or passages of the source.

Tests used:
[1] = Thermogravimetric analysis (TGA); assay type: physicochemical
Description: Thermogravimetric Analysis (TGA)—TG analysis was performed using a Mettler-Toledo TGA/DSC3+ analyzer. Temperature and enthalpy adjustments were performed using indium, tin, and zinc, and then verified with indium. The balance was verified with calcium oxalate. The sample was placed in an open aluminum pan. The pan was hermetically sealed, the lid pierced, then inserted into the TG furnace. A weighed aluminum pan configured as the sample pan was placed on the reference platform. The furnace was heated under nitrogen. The data acquisition parameters for the thermogram are determined.

[2] = pH 7.3
[3] = Dynamic vapor sorption (DVS); assay type: physicochemical; design: key to Hysteresis: % change in weight (DVS sorption/desorption); settings: for Hysteresis: in % (unit assumed); for Desorp Mass Change: desorption; for Sorp Mass Change: sorption
Source text: In an embodiment, ethanolamine gemfibrozil salt Form A has a low hygroscopicity below approximately 55% relative humidity, meaning less than 0.5% increases in weight below approximately 55% relative humidity, which may be determined using dynamic vapor sorption (DVS) to detect changes in weight of the salt in response to changes in relative humidity. […] Table 6 lists the percent change in weight of ethanolamine gemfibrozil salt Form A (Sorp Mass Change (%)) in 10% relative humidity increments from its initial weight at 5% relative humidity to its weight at 95% relative humidity.
Dynamic Vapor Sorption (DVS)—Moisture sorption/desorption data were collected on a SMS Intrinsic Dynamic Vapor Sorption Analyzer. Sodium chloride and PVP were used as calibration standard. Samples were not dried prior to analysis. Sorption and desorption data were collected over a range from 5% to 95% relative humidity at 10% relative humidity increments under a nitrogen purge. The equilibrium criterion used for analysis was less than 0.0100% weight change in 5 minutes with a maximum equilibration time of 3 hours. Data were not corrected for the initial moisture content of the samples.

[4] = equivalent to 100 mg free form in 250 ml pH 7.3 artificial saliva, 37° C., 50 RPM
Description: Dissolution experiments using the salt forms of gemfibrozil were performed using a VanKel VK7010 dissolution apparatus equipped with a VK750D heater/circulator. The 2 paddle method was used. Dissolution medium was 250 mL of artificial saliva, pH 7.30. The temperature was maintained at 37° C. The paddles were rotated at 50 RPM. […] Samples aliquots of 2 mL were taken at 5, 10, and 15 minutes and filtered immediately using a […] Nylon membrane syringe filter. Samples were analyzed by HPLC.

In the case of `Cc1ccc(C)c(OCCCC(C)(C)C(=O)O)c1.NCCO` [Ethanolamine Form A], the “temperature until which weight does not decrease (may be the onset of decomposition)” value [1] is reported as “approximately 140 °C”, the Observations [2] is reported as “No excess solids” and the Hysteresis ([3]; Target RH 15.0%) is reported as 2.60. It also gave a Hysteresis ([3]; Target RH 25.0%) of 3.56, a Hysteresis ([3]; Target RH 35.0%) of 4.87 and a Hysteresis ([3]; Target RH 45.0%) of 6.67. The Hysteresis ([3]; Target RH 55.0%) was 9.19, the Hysteresis ([3]; Target RH 65.0%) was 1.78 and the Hysteresis ([3]; Target RH 75.0%) was 0.64. The Hysteresis ([3]; Target RH 85.0%) was 4.16, the “state of post-DVS sample” value ([3]; after sorption/desorption cycle 5%-95%-5% relative humidity) was “deliquesced” and the “Desorp Mass Change” value ([3]; Target RH 5.0%) was 1.92%. For the same molecule, the “Desorp Mass Change” value ([3]; Target RH 15.0%) was 2.60%, the “Desorp Mass Change” value ([3]; Target RH 25.0%) was 3.56% and the “Desorp Mass Change” value ([3]; Target RH 35.0%) was 4.88%. The “Desorp Mass Change” value ([3]; Target RH 45.0%) was 6.70%, the “Desorp Mass Change” value ([3]; Target RH 55.0%) was 9.29% and the “Desorp Mass Change” value ([3]; Target RH 65.0%) was 12.93%. For the same molecule, the “Desorp Mass Change” value ([3]; Target RH 75.0%) was 18.56%, the “Desorp Mass Change” value ([3]; Target RH 85.0%) was 31.49% and the “Desorp Mass Change” value ([3]; Target RH 95.0%) was 45.05%. For the same molecule, the gained moisture retained ([3]; following desorption from 95% to 5% relative humidity) was “approximately 2%”, the “percent increase in mass” value ([3]; sorption from 5% to 55% relative humidity) was “approximately 0.1%” and the “percent change in mass” value ([3]; sorption from 55% to 95% relative humidity) was 44.9%. For the same molecule, the “Sorp Mass Change” value ([3]; Target RH 5.0%) was 0.00%, the “Sorp Mass Change” value ([3]; Target RH 15.0%) was 0.00% and the “Sorp Mass Change” value ([3]; Target RH 25.0%) was 0.00%. For the same molecule, the “Sorp Mass Change” value ([3]; Target RH 35.0%) was 0.01%, the “Sorp Mass Change” value ([3]; Target RH 45.0%) was 0.03% and the “Sorp Mass Change” value ([3]; Target RH 55.0%) was 0.10%. The “Sorp Mass Change” value ([3]; Target RH 65.0%) was 11.14%, the “Sorp Mass Change” value ([3]; Target RH 75.0%) was 17.93% and the “Sorp Mass Change” value ([3]; Target RH 85.0%) was 27.33%. The “Sorp Mass Change” value ([3]; Target RH 95.0%) was 45.05%, the “Average % Gemfibrozil dissolved” value ([4]; 5 min) was 97.30% and the “Average % Gemfibrozil dissolved” value ([4]; 5 min, listed as ethanolamine gemfibrozil salt Form A) was 97.3%. For the same molecule, the “Average % Gemfibrozil dissolved” value ([4]; 10 min) was 94.80% and the “Average % Gemfibrozil dissolved” value ([4]; 15 min) was 95.84%.
